# Source: patent US20050037450A1, “Novel targets for lithium therapy” (Duke University, priority 2002, published 2005)
# Several values for one entry are separate records, joined by “and”; a condition that tells them apart may be missing. Identical values can stand only once. Like-named read-outs stand apart in the source and are kept apart here.
# How the values were obtained:
# [1] = tested on: intracellular PAP in wild type yeast; assay: Intracellular PAP concentration by GST-PST binding assay, wild type yeast; type: cell-based, S. cerevisiae
# Protocol: (§1) Yeast were grown in CM/ura^− containing 2% galactose to mid-log phase. The cultures were washed extensively and resuspended in the CM/ura^−/met^− media with the noted inclusions. PAP was measured using the ligand binding assay described in Experimental Procedures. Intracellular PAP concentrations were normalized to the amount of soluble protein extracted from the cultures.
# For the assay of intracellular PAP concentrations, appropriate yeast strains were grown in CM/ura^− to mid-log phase (OD600=1.0). The cells were centrifuged and washed extensively in sterile water. The cells were resuspended in CM/ura^−/met^− containing methionine (20 μg/ml), lithium, or chlorate as appropriate. The cultures were incubated with shaking at 30° C. At various time points, 2 ml of culture was removed and centrifuged. The cells were washed with 1 ml of water. 250 μl was centrifuged and resuspended in 200 μl K-lysis buffer. 200 μl of glass beads were added, and the cells were disrupted by vigorous bead beating. The amount of soluble protein in this extract was determined using a Bradford dye-binding assay (BioRad, Hercules, Calif., United States of America) with bovine serum albumin as a standard. The remaining 750 μl of washed cells was spun down and resuspended in 250 μl of 2 N HClO4. This was incubated at 4° C. for 20 min, when 250 μl of 1.8 N KOH, 0.4 N KHCO3 were added to neutralize and precipitate the HClO4. The extract was centrifuged at 4° C. to remove the debris, and the supernatant was lyophilized using a rotary evaporator. The dried extracts were frozen at −80° C. for no more than one week prior to use. Extracts were reconstituted in 100 μL of 200 mM HEPES, pH 7.5 and again centrifuged to remove debris. 5′ [^32P] 3′, 5′ PAP was created as described (Spiegelberg, 1999). The GST-PST assay was performed by mixing 10 μL of standard PAP, treated as above, or 10 μL of sample diluted approximately 1:1000 in K-lysis buffer, with 10 μL of radiolabeled PAP (approximately 10,000 CPM). Eighty microliters of a reaction mix containing 100 mM HEPES, pH 7.0, 5 mM DTT, 0.2 mg/ml BSA, and 1 μg of GST-PST were added to start the binding reaction. The reactions were allowed to equilibrate for at least one hour at room temperature. Following incubation, 20 μl of a 50:50 slurry of glutathione sepharose in K-lysis buffer was added. The tubes were incubated with gentle mixing for 10 min at room temperature. The protein with bound PAP was pulled down by centrifugation for 2 min at room temperature. 80 μl of the supernatant, containing free PAP, was removed to a scintillation vial and 200 μl of K-lysis buffer was added to wash the resin. The tubes were centrifuged again and the 200 μl wash was transferred to the original scintillation vials. Radioactivity was determined by adding 5 ml of […] ECONO2™ scintillation fluid (Fisher Scientific, Hampton, N.H., United States of America) and counted in a liquid scintillation counter. The counts were converted to percent isotope bound, and a standard curve was prepared by plotting percent bound vs. the logarithm of the PAP concentration. […]
# The GST-PST binding assay was used to determine relative intracellular PAP concentrations in yeast strains grown under various conditions. The PAP concentration determined in the binding assay was normalized to the total soluble protein in parallel extracts, and background was eliminated by reporting only the signal that was sensitive to in vitro degradation by purified recombinant Hal2p. […]
# [2] = tested on: intracellular PAP in met14Δ cells; type: cell-based, S. cerevisiae
# Protocol: as §1
# (§2) For the assay of intracellular PAP concentrations, appropriate yeast strains were grown in CM/ura^− to mid-log phase (OD600=1.0). The cells were centrifuged and washed extensively in sterile water. The cells were resuspended in CM/ura^−/met^− containing methionine (20 μg/ml), lithium, or chlorate as appropriate. The cultures were incubated with shaking at 30° C. At various time points, 2 ml of culture was removed and centrifuged. The cells were washed with 1 ml of water. 250 μl was centrifuged and resuspended in 200 μl K-lysis buffer. 200 μl of glass beads were added, and the cells were disrupted by vigorous bead beating. The amount of soluble protein in this extract was determined using a Bradford dye-binding assay (BioRad, Hercules, Calif., United States of America) with bovine serum albumin as a standard. The remaining 750 μl of washed cells was spun down and resuspended in 250 μl of 2 N HClO4. This was incubated at 4° C. for 20 min, when 250 μl of 1.8 N KOH, 0.4 N KHCO3 were added to neutralize and precipitate the HClO4. The extract was centrifuged at 4° C. to remove the debris, and the supernatant was lyophilized using a rotary evaporator. The dried extracts were frozen at −80° C. for no more than one week prior to use. Extracts were reconstituted in 100 μL of 200 mM HEPES, pH 7.5 and again centrifuged to remove debris. 5′ [^32P] 3′, 5′ PAP was created as described (Spiegelberg, 1999). The GST-PST assay was performed by mixing 10 μL of standard PAP, treated as above, or 10 μL of sample diluted approximately 1:1000 in K-lysis buffer, with 10 μL of radiolabeled PAP (approximately 10,000 CPM). Eighty microliters of a reaction mix containing 100 mM HEPES, pH 7.0, 5 mM DTT, 0.2 mg/ml BSA, and 1 μg of GST-PST were added to start the binding reaction. The reactions were allowed to equilibrate for at least one hour at room temperature. Following incubation, 20 μl of a 50:50 slurry of glutathione sepharose in K-lysis buffer was added. The tubes were incubated with gentle mixing for 10 min at room temperature. The protein with bound PAP was pulled down by centrifugation for 2 min at room temperature. 80 μl of the supernatant, containing free PAP, was removed to a scintillation vial and 200 μl of K-lysis buffer was added to wash the resin. The tubes were centrifuged again and the 200 μl wash was transferred to the original scintillation vials. Radioactivity was determined by adding 5 ml of […] ECONO2™ scintillation fluid (Fisher Scientific, Hampton, N.H., United States of America) and counted in a liquid scintillation counter. The counts were converted to percent isotope bound, and a standard curve was prepared by plotting percent bound vs. the logarithm of the PAP concentration. This standard curve was used to back-calculate the PAP concentration in the unknown samples.
# (§3) The GST-PST binding assay was used to determine relative intracellular PAP concentrations in yeast strains grown under various conditions. The PAP concentration determined in the binding assay was normalized to the total soluble protein in parallel extracts, and background was eliminated by reporting only the signal that was sensitive to in vitro degradation by purified recombinant Hal2p. The assay was characterized further by analyzing the intracellular PAP concentration of wild type yeast grown in the presence of lithium.
# [3] = tested on: intracellular PAP in met3Δ cells; type: cell-based, S. cerevisiae
# Protocol: as §1, §2, §3
# patients = settings: cited from earlier work
compound,measurement,setting,value
[Li] [lithium],Fold increase of PAP concentration,[1],at least 85.8 fold
same,Intracellular PAP concentration,"[1]; wild type, 100 mM LiCl, 8 hr, absence of methionine, normalized to soluble protein",42.9 nmol/mg
same,Fold increase of PAP concentration,"[2]; met14Δ expressing hPAPSS2, 100 mM lithium vs absence of lithium",≥ 65.4 fold
same,Intracellular PAP concentration,"[2]; met14Δ expressing hPAPSS2, 100 mM lithium, eight hours",~32.8 nmol/mg and 32.7 nmol/mg
same,Intracellular PAP concentration,"[2]; met14Δ with empty vector, independent of methionine and lithium concentration, data not shown",less than 0.5 nmol PAP/mg soluble protein
same,Fold increase of PAP concentration,"[3]; met3Δ expressing hPAPSS2, 100 mM lithium vs absence of lithium",≥ 72.4 fold
same,Intracellular PAP concentration,"[3]; met3Δ with empty vector, independent of methionine and lithium concentration, data not shown",less than 0.5 nmol PAP/mg soluble protein
same,Occurrence of acquired nephrogenic diabetes insipidus (NDI),patients; patients taking the drug,20-50%
same,Patients reporting clinically significant polyuria,patients; patients undergoing lithium therapy,Up to 20%
